What all share (assay): NCI anticancer screen, dose series, 48 h
The test system of assay [1] is A549.
Assay [2] deals with ACHN.
For assay [3], the system named is COLO 205.
Assay [4] concerns DMS-114.
The test system of assay [5] is HCC 2998.
The test system of assay [6] is HOP-92.
Assay [7] deals with HT-29.
For assay [8], the system named is MOLT-4.
Assay [9] deals with NCI-H23.
In assay [10] the test system is NCI-H522.
The test system of assay [11] is OVCAR-4.
The test system of assay [12] is OVCAR-8.
In assay [13] the test system is RPMI-8226.
For assay [14], the system named is SF-268.
For assay [15], the system named is SF-295.
For assay [16], the system named is SK-MEL-2.
In assay [17] the test system is SN12C.
Assay [18] deals with SR.
Assay [19] deals with TK-10.
Assay [20] deals with HCT-15.

Experimental findings from ChEMBL document CHEMBL1201862, “PubChem BioAssay data set” (2004) are described below.

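Method: 48-hour compound exposure of cells in 96-well plates, five concentrations, linear interpolation of endpoints. GI50 marks 50% less growth.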 Activity calls are given as the source filed them. No stated cut-off is given here; in the data, active = GI50 up to about 1.1 µM and inactive = higher.

On to `O=C(CCCCCCCCCCc1ccccc1)C1=C(O)CC(O)CC1=O` (stereo not drawn), for which the GI50 was 42.1 µM (inactive) in assay [1]; 58.5 µM (inactive) in assay [2]; 45.2 µM (inactive) in [3]; 35.5 µM (inactive) in assay [4]; 34.9 µM (inactive) in assay [5]; 33.3 µM (inactive) in assay [6]. The GI50 in [7] is 47.6 µM (inactive); in [8], 40.5 µM (inactive); in assay [9], 56.4 µM (inactive); in assay [10] it was 33.4 µM (inactive); in assay [11], 74.3 µM (inactive); in assay [12], 49.7 µM (inactive). For the same compound, the GI50 in [13] was 34.8 µM (inactive); in assay [14], > 100 µM (inactive); in [15], 56.8 µM (inactive); in assay [16], 25.4 µM (inactive); in assay [17], 96.2 µM (inactive); in assay [18], 40.9 µM (inactive). Besides, the GI50 in assay [19] was 64.6 µM (inactive).

For `COc1ccc(N2C(Cl)C(=O)C2c2c[nH]c3ccccc23)cc1` (stereo not drawn), the GI50 in assay [1] was > 100 µM (inactive); in assay [3] it was > 100 µM (inactive); in [4] it was > 100 µM (inactive); in assay [6], 28.3 µM (inactive); in assay [7] it was > 100 µM (inactive); in assay [8], > 100 µM (inactive). Besides, the GI50 in assay [9], in assay [10], in assay [11], in assay [12], in assay [13] and in assay [14] was > 100 µM (inactive) each time. Besides, the GI50 in assay [15], in assay [16], in [17], in assay [18] and in assay [19] was > 100 µM (inactive) throughout.

On to `O=C(CCl)NNC1=Nc2ccc(Cl)cc2SC1`, for which the GI50 is 9.33 µM (inactive) in assay [1]; 1.94 µM (inactive) in assay [3]; 1.98 µM (inactive) in assay [4]; 5.4 µM (inactive) in assay [5]; 1.81 µM in assay [20]; 1.63 µM (inactive) in [6]. The GI50 in assay [7] is 1.85 µM (inactive); in assay [8], 1.12 µM (active); in assay [9] it was 2.47 µM (inactive); in assay [10] it was 0.553 µM (active); in [11] it was 2.12 µM (inactive); in assay [12] it was 1.4 µM (inactive). Besides, the GI50 was 1.86 µM (inactive) in assay [13]; 1.69 µM (inactive) in [14]; 15.1 µM (inactive) in assay [15]; 3.66 µM (inactive) in [16]; 1.95 µM (inactive) in assay [17].

Turning to `CSc1nc2c(ncn2C2OCC(O)C(O)C2O)c(=O)[nH]1` (stereo not drawn), the GI50 in [1] is > 100 µM (inactive); in [3] it was > 100 µM (inactive); in assay [4] it was > 100 µM (inactive); in [5], > 100 µM (inactive); in [20], > 100 µM; in [6], > 100 µM (inactive). Besides, the GI50 in assay [7], in assay [8], in assay [9], in assay [10], in assay [11] and in [12] was > 100 µM (inactive) throughout. Moreover, the GI50 in assay [13], in [14], in [15], in assay [16] and in assay [17] was > 100 µM (inactive) in each case.

With `CCCCCn1cc2c3c(cccc31)C1C=C(C)CN(C)[C@@H]1C2.Cc1ccc(C(=O)OC(C(=O)O)C(OC(=O)c2ccc(C)cc2)C(=O)O)cc1` (stereo not drawn), the GI50 was 9.33 µM (inactive) in assay [1]; 3.38 µM (inactive) in [3]; 3.47 µM (inactive) in assay [4]; 2.6 µM (inactive) in [5]; 4.58 µM in assay [20]; 1.6 µM (inactive) in assay [6]. Besides, the GI50 is 3.4 µM (inactive) in assay [7]; 4.24 µM (inactive) in assay [8]; 3.37 µM (inactive) in assay [9]; 3.44 µM (inactive) in [10]; 5.96 µM (inactive) in [11]; 12.3 µM (inactive) in assay [12]. Further, the GI50 in [13] was 2.64 µM (inactive); in assay [14], 11 µM (inactive); in assay [15], 6.17 µM (inactive); in assay [16], 9.18 µM (inactive); in [17], 13 µM (inactive).

As for `O=C1OC2(CC1C1(O)C3CC4CC(C3)CC1C4)C1CC3CC(C1)CC2C3` (stereo not drawn), the GI50 in assay [1] was 56.4 µM (inactive); in assay [2] it was > 100 µM (inactive); in [4], 82 µM (inactive); in [20], > 100 µM; in assay [7], > 100 µM (inactive); in assay [8], > 100 µM (inactive). Further, the GI50 in [9] was > 100 µM (inactive); in [11], 22.1 µM (inactive); in assay [12] it was 35.1 µM (inactive); in assay [14], > 100 µM (inactive); in assay [15], 14.5 µM (inactive); in assay [16], > 100 µM (inactive). For the same compound, the GI50 in assay [17] was 65.3 µM (inactive); in assay [19], > 100 µM (inactive).

For `COc1cc(C2C(Cl)C(=O)N2NC(=O)c2ccccc2O)ccc1O` (stereo not drawn), the GI50 is > 100 µM (inactive) in [1]; > 100 µM (inactive) in assay [2]; > 100 µM (inactive) in assay [4]; > 100 µM (inactive) in assay [5]; > 100 µM in assay [20]; > 100 µM (inactive) in assay [7]. In addition, the GI50 in [8] is > 100 µM (inactive); in assay [9] it was > 100 µM (inactive); in assay [10], > 100 µM (inactive); in assay [12], 70.8 µM (inactive); in assay [14], > 100 µM (inactive); in [15], > 100 µM (inactive). Further, the GI50 in assay [16], in [17] and in [19] was > 100 µM (inactive) throughout.

`C/C=C1/C(=O)O[C@]23C=C[C@@H]4C(C(=O)OC)=CO[C@H](O[C@@H]12)[C@@H]43` [PLUMERICIN]: the GI50 in assay [1] is 3.47 µM (inactive); in assay [3], 1 µM (active); in [4], 1.12 µM (inactive); in [5] it was 2.68 µM (inactive); in assay [20] it was 0.671 µM; in [6] it was 1.61 µM (inactive). In addition, the GI50 was 2.18 µM (inactive) in [7]; 0.459 µM (active) in [8]; 0.916 µM (active) in assay [9]; 0.353 µM (active) in assay [10]; 1.52 µM (inactive) in assay [11]; 0.594 µM (active) in assay [12]. The GI50 is 0.423 µM (active) in [13]; 1.28 µM (inactive) in assay [14]; 2.46 µM (inactive) in [15]; 1.44 µM (inactive) in assay [16]; 1.98 µM (inactive) in assay [17].
